Data: article PMC3929365, “Benzimidazoisoquinolines: A New Class of Rapidly Metabolized Aryl Hydrocarbon Receptor (AhR) Ligands that Induce AhR-Dependent Tregs and Prevent Murine Graft-Versus-Host Disease” (PLoS ONE, 2014)

Experiments:
[1] = Pharmacokinetics: serum concentration after single i.p. injection; type: in vivo, C57Bl/6 mice; settings: 10 mg/kg i.p., mouse
Method: C57Bl/6 mice were injected i.p. with 10 mg/kg 10-Cl-BBQ. At defined time points, blood was collected by cardiac puncture. Serum was harvested and protein was precipitated by adding a 4-fold volume of ice-cold acetonitrile. The supernatant was collected and analyzed on a QTRAP 4000 LC/MS/MS instrument using an Agilent C8 UPLC column. The serum concentration of 10-Cl-BBQ was determined using a standard curve prepared using dilutions of 10,000; 5,000; 1,000; 500; 100; 50 and 10 pg/ml of 10-Cl-BBQ. The mean values (n = 2–3 mice per time point) are shown with SEM. Pharmacokinetic parameters were calculated using PKsolver software.
Figure 2 Pharmacokinetics of 10-Cl-BBQ. C57BL/6 mice were given 10 mg/kg 10-Cl-BBQ by i.p. injection. A) Blood was collected at the indicated times by cardiac puncture. The serum was processed to remove protein and the samples were analyzed by QTRAP 4000 LC/MS/MS. The serum concentration of 10-Cl-BBQ was determined from a standard curve based on known concentrations of 10-Cl-BBQ. B) Liver tissue was harvested and processed for mRNA analysis. CYP1A1 gene expression was determined relative to the β-actin gene, and the fold-induction was determined by the ΔΔCt method using the vehicle-treated samples as a control. The mean values are shown with SEM for 2–3 mice per time point.

[2] = test system: Foxp3; assay: Lymph node gene expression (RT-qPCR) during the GVH response; type: in vivo, B6D2F1 host mice; settings: any dose (0.4, 2 or 10 mg/kg/day), lymph nodes, 48 h
Method: RNA was isolated from lymph nodes of B6D2F1 host mice with the RNeasy Mini Kit (Qiagen). cDNA was prepared from at least 1 µg RNA in a 2-step reaction using the ReactionReady First Strand cDNA synthesis kit (SA Biosciences) according to the manufacturer’s instructions and Superscript III reverse-transcriptase (Life Technologies). The qPCR reaction was carried out on an ABI PRISM 7500 Real-Time PCR system (Applied Biosystems). The reaction mixture consisted of SYBR Green/ROX qPCR Master Mix (SA Bioscience), 2–10 ng-RNA equivalent cDNA and 1 µl of the gene-specific commercial primer sets (SA Biosciences). The following conditions were used: 10 min at 95°C (1 cycle), 15 s at 95°C and 1 min at 60°C (40 cycles). […] The raw data was normalized to Actb and the fold-change was calculated by the ΔΔCt method using vehicle-treated sample values as the control.
Figure 3 10-Cl-BBQ induces an AhR-dependent Treg phenotype 48 h after initiating the GVH response. […] E) In the same mice as in D, lymph nodes were harvested and analyzed for expression of genes that were previously shown to increase under the same GVH conditions with TCDD treatment (13). […] Changes in gene expression were calculated relative to the β-actin gene, and the fold-induction was calculated by the ΔΔCt method using the vehicle-treated samples as a control. * = p<0.05 relative to vehicle treatment. […]

[3] = test system: CD4+ T cells; assay: Donor CD4+ T cell proliferation in vivo (CFSE dilution) during the GVH response; design: species or system B6D2F1 host mice; settings: 10 mg/kg/d i.p. for two days
Method: A. Splenocytes from C57Bl/6 mice were labeled with CFSE and activated in vitro with anti-CD3 and anti-CD28 in the presence of 100 nM 10-Cl-BBQ or DMSO for 72 h. B. C57Bl/6 donor T cells were labeled with CFSE and injected into B6D2F1 host mice to initiate the GVH response. Host mice (n = 5 per group) were treated with vehicle or 10-Cl-BBQ i.p. (10 mg/kg/d) for two days. Donor cells were identified by gating on CD4^+CFSE^+ cells. […] (TIF) Click here for additional data file.

[4] = test system: AhR; assay: Cytosol to nuclear translocation of AhR in Hepa-1 cells; type: cell-based, mouse; settings: 10 nM, 1 h
[5] = test system: AhR target genes; assay: Expression of known AhR target genes in Hepa1 cells (RT-qPCR); type: cell-based, mouse; settings: 10 nM, eight hours
Method: Supplementary file pone.0088726.s001.tif: Figure S1 10-Cl-BBQ induces the expression of known AhR target genes. Hepa1 cells were treated with 10-Cl-BBQ (10 nM), TCDD (10 nM), or vehicle (DMSO) for eight hours. RNA was extracted and RT-qPCR was performed for a select set of known AhR target genes. AHRR: aryl hydrocarbon receptor repressor, ALDH3A1: aldehyde dehydrogenase family 3; subfamily A1, CYP1b1: cytochrome P450 1b1; Gstm3: glutathione S-transferase, mu 3; GST-Ya: glutathione S transferase, alpha 1; NQO1: NAD(P)H dehydrogenase quinone 1; UGT2b34: UDP glucuronosyltransferase 2 family, polypeptide B34. (TIF) Click here for additional data file.

[6] = test system: AhR
Method: The AhR reporter gene assay was performed as previously described (20–22).
B) Hepa1 cells expressing endogenous AhR were transfected with a XRE-luciferase reporter gene. […] The mean luciferase activity is shown with SEM. C) Dose response curves for the competitive inhibition of [^3H] 3-MC binding to AhR.
3-methylcholanthrene (3-MC) to AhR (Fig. 5C).

SMILES: O=c1c2cccc3cccc(c32)c2nc3ccc(Cl)cc3n12 [10-Cl-BBQ, 10-chloro-7H-benzimidazo[2,1-a]benzo[de]isoquinolin-7-one]
- absorption rate constant (ka) [1]: 1.2 h⁻¹
- time required to reach Cmax (Tmax) [1]: 1.64 h
- total clearance/bioavailability (CL/F) [1]: 32.5 mL/min
- half-life ([1]; C57Bl/6, serum, ip, one compartment model): ~120 min
- AUC(0-inf) ([1]; C57Bl/6, serum, ip, read-out: area under the concentration-time curve (AUC0-∞)): 102 ng·h/mL
- Cmax ([1]; C57Bl/6, serum, ip, read-out: maximum concentration reached in serum (Cmax)): 21.5 ng/mL
- Vd/F ([1]; C57Bl/6, serum, ip, read-out: volume of distribution/bioavailability (V/F)): 5.66 L
- expression of Foxp3 [2]: did not induce expression of Foxp3
- proliferation of activated T cells in vivo [3]: did not inhibit proliferation
- cytosol to nuclear translocation of AhR [4]: promoted cytosol to nuclear translocation of AhR
- induction of genes associated with AhR activation in hepatocytes [5]: induced a battery of genes
- IC50 [6]: 2.6 nM
